According to patent US11661426B2, “Imidazole-containing inhibitors of ALK2 kinase” (BioCryst Pharmaceuticals, Inc., priority 2017, dated 2023):

Target: ALK2 (Homo sapiens (Human), UniProt Q04771)
Test: ALK2 inhibition, LanthaScreen Eu Kinase Binding Assay (ThermoFisher Scientific / Life Technologies)
Details: read-out: Measured Ki (IC50) Value for Compounds: IC50
Experimental: Biochemical assays to measure the inhibitory effects of the compounds were performed by ThermoFisher Scientific (Life Technologies). ALK2 inhibition was tested using LanthaScreen™ Eu Kinase Binding Assay screening protocol.

Sequence of ALK2 (Q04771 21-509): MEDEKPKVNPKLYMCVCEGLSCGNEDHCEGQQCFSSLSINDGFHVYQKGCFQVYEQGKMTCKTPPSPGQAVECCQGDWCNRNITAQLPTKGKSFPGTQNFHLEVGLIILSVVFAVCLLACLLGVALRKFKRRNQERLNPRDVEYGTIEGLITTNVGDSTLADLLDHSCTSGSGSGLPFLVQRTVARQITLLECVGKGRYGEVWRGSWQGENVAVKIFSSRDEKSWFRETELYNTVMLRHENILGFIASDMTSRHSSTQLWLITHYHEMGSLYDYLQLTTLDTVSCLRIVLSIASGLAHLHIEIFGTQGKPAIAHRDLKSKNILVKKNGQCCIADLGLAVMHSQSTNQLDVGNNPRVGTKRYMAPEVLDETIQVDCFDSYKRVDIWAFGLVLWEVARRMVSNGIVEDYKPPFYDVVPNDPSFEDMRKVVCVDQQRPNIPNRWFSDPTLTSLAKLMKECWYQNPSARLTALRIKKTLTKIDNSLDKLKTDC

Compound	IC50 [nM]
c1ccc([C@@H]2CCCN2c2nc(Nc3cn(C4CCC4)cn3)c3cccn3n2)cc1 [Compound 63a, (S)—N-(1-cyclobutyl-1H-imidazol-4-yl)-2-(2-phenylpyrrolidin-1-yl)pyrrolo[2,1-f][1,2,4]triazin-4-amine]	< 100
COc1cc(-n2cnc(Nc3nc(N4CCC[C@@H]4C(N)=O)nn4cccc34)c2)cc(OC)c1OC [Compound 210a, (R)-1-(4-((1-(3,4,5-trimethoxyphenyl)-1H-imidazol-4-yl)amino)pyrrolo[2,1-f][1,2,4]triazin-2-yl)pyrrolidine-2-carboxamide]	< 100
OC[C@@H]1CCCN1c1nc(Nc2cn(-c3ccccc3)cn2)c2ccccc2n1 [Compound 32a, (S)-(1-(4-((1-phenyl-1H-imidazol-4-yl)amino)quinazolin-2-yl)pyrrolidin-2-yl)methanol]	< 100
COc1cc(-n2cnc(Nc3nc(N4CCC[C@H]4C(N)=O)nc4sc(CN5CCCC5)cc34)c2)cc(OC)c1OC [Compound 403h, (S)-1-(6-(pyrrolidin-1-ylmethyl)-4-((1-(3,4,5-trimethoxyphenyl)-1H-imidazol-4-yl)amino)thieno[2,3-d]pyrimidin-2-yl)pyrrolidine-2-carboxamide]	< 100
OC[C@@H]1CCCN1c1nc(Nc2nccs2)c2cccn2n1 [Compound 455c, (S)-(1-(4-(thiazol-2-ylamino)pyrrolo[2,1-f][1,2,4]triazin-2-yl)pyrrolidin-2-yl)methanol]	100 to 1000
Cn1cnc(-n2cnc(Nc3nc(N4CCC[C@H]4CO)nn4cccc34)c2)c1 [Compound 82a, (S)-(1-(4-((1′-methyl-1′H-[1,4′-biimidazol]-4-yl)amino)pyrrolo[2,1-f][1,2,4]triazin-2-yl)pyrrolidin-2-yl)methanol]	< 100
COc1cc(-n2cnc(Nc3nc(N4CCC[C@H]4CO)nc4c3CN(Cc3ccccc3)CC4)c2)cc(OC)c1OC [Compound 149c, (S)-(1-(6-benzyl-4-((1-(3,4,5-trimethoxyphenyl)-1H-imidazol-4-yl)amino)-5,6,7,8-tetrahydropyrido[4,3-d]pyrimidin-2-yl)pyrrolidin-2-yl)methanol]	100 to 1000
OC[C@@H]1CCCN1c1nc(Nc2cn(-c3ccc4c(c3)OC(F)(F)O4)cn2)c2ccsc2n1 [Compound 432a, (S)-(1-(4-((1-(2,2-difluorobenzo[d][1,3]dioxol-5-yl)-1H-imidazol-4-yl)amino)thieno[2,3-d]pyrimidin-2-yl)pyrrolidin-2-yl)methanol]	100 to 1000
COc1cc(-n2cnc(Nc3nc(N4CCC[C@H]4CO)c4ccc(-c5cccc(F)c5)cc4n3)c2)cc(OC)c1OC [Compound 362b, (S)-(1-(7-(3-fluorophenyl)-2-((1-(3,4,5-trimethoxyphenyl)-1H-imidazol-4-yl)amino)quinazolin-4-yl)pyrrolidin-2-yl)methanol]	< 100
COc1cc(-n2cnc(Nc3nc(N4CCC[C@H]4C(=O)NCC4CC4)nc4ccoc34)c2)cc(OC)c1OC [Compound 248a, (S)—N-(cyclopropylmethyl)-1-(4-((1-(3,4,5-trimethoxyphenyl)-1H-imidazol-4-yl)amino)furo[3,2-d]pyrimidin-2-yl)pyrrolidine-2-carboxamide]	< 100
COc1cc(-n2cnc(Nc3nc(N4CCC[C@H]4C(N)=O)nc4c3CCN(Cc3ccccc3)C4)c2)cc(OC)c1OC [Compound 154a, (S)-1-(7-benzyl-4-((1-(3,4,5-trimethoxyphenyl)-1H-imidazol-4-yl)amino)-5,6,7,8-tetrahydropyrido[3,4-d]pyrimidin-2-yl)pyrrolidine-2-carboxamide]	< 100
COc1cc(-n2cnc(Nc3nc(N4CCC[C@H]4CO)nn4c(C5=CCNCC5)ccc34)c2)cc(OC)c1OC [Compound 107a, (S)-(1-(7-(1,2,3,6-tetrahydropyridin-4-yl)-4-(1-(3,4,5-trimethoxyphenyl)-1H-imidazol-4-ylamino)pyrrolo[1,2-f][1,2,4]triazin-2-yl)pyrrolidin-2-yl)methanol]	< 100
